Assay results taken from patent publication US10220024B2, “Method of inhibiting cancer cell, method for detecting cancer cell, and system for detecting cancer cell” (CANON KABUSHIKI KAISHA, priority 2012, dated 2019).
Where two headings read alike, the source gives them in different places.

Key:
[1] = system: K562-BFP human chronic myelocytic leukemia cells transplanted to zebra young fish; test: Cancer metastasis suppressive effect in metastatic foci of cancer cells transplanted to zebra young fish; type: in vivo; settings: metastatic foci (region within 300 to 450 μm from a transplanted tumor); for Evaluation (inhibition rate in metastatic foci): 0.5 μm in breeding water; for Inhibition rate: final concentration of 0.5 μm in breeding water, 100×(1-F1/F0) versus DMSO
Description: From cell strain K562-BFP, which is a strain of human chronic myelocytic leukemia cells having fluorescent protein TagBFP constantly expressed, a fraction (ALDH (+)) containing 80% or more of cancer stem cells was extracted by use of a cancer stem cell marker, ALDEFLUOR reagent (manufactured by VERITAS Corporation) and FACSAria flow cytometry (manufactured by Nippon Becton, Dickinson and Company). The ALDH (+) fraction and a ALDH (−) fraction of general cancer cells were transplanted separately to zebra young fish (MieKomachi lineage, 2 days after fertilization) and the fish were raised in a 32° C. environment. Furthermore, 24 hours after transplantation, Compound (16) was added to breeding water so as to obtain a final concentration of […] and fish were raised for two days in a 32° C. environment. Cells transplanted to the zebra young fish were observed under MZ16F fluorescent stereoscopic microscope (manufactured by Leica Microsystems) and a fluorescent image of the cells after 24 hours was photographed and then fluorescent intensity was quantified.
As a reference, the fluorescent intensity of cells, which were cultured in the same operation method as above in a medium containing a 0.1% DMSO solution in place of Compound (16), was used.
Fluorescent images were photographed in the same manner as in Experimental Example 29 except that Imatinib and Dasatinib were respectively used in place of the compound (16) in Experimental Example 29.
The inhibition rate herein was obtained according to the expression: 100×(1-F1/F0), where the fluorescent intensity of cells when a test substance was added is represented by F1, and the fluorescent intensity of cells when a reference substance (DMSO) was added is represented by F0.
The growth suppressive effect in metastatic foci (region within 300 to 450 μm from a transplanted tumor) of cancer stem cells was evaluated based on the following criteria. • A: Inhibition rate is 70 or more (growth suppressive effect against metastatic foci (region within 300 to 450 μm from a transplanted tumor) of cancer stem cells is extremely high) • B: Inhibition rate is 50 or more and less than 70 (growth suppressive effect against metastatic foci (region within 300 to 450 μm from a transplanted tumor) of cancer stem cells is high) • C: Inhibition rate is less than 50 (growth suppressive effect against metastatic foci (region within 300 to 450 μm from a transplanted tumor) of cancer stem cells is low)

[2] = system: K562 ALDH (−) fraction (general cancer cells); test: Cancer stem-cell selective inhibitory action against chronic myelocytic leukemia cells, ALDH (−) fraction, CellTiter-Glo; type: cell-based, Human
Procedure: (§1) Human chronic myelocytic leukemia cells, K562, were pre-cultured in RPMI1640 medium containing 10% FBS at 37° C. in a 5% CO2 ambient. Then, a fraction containing 80% or more of cancer stem cells was extracted by use of ALDEFLUOR reagent (manufactured by VERITAS Corporation) and FACSAria flow cytometry (manufactured by Nippon Becton, Dickinson and Company). Subsequently, Compound (5) was added to the medium so as to obtain a final concentration of 10 μg/mL and cultured at 37° C. for 24 hours in a 5% CO2 ambient. The cultured cells were analyzed for viable cell count according to CellTiter-Glo Luminescent Cell Viability Assay (manufactured by Promega KK.). As a reference, the number of cells cultured in a medium containing a 0.1% dimethylsulfoxide solution (hereinafter, simply referred to as DMSO) in place of a medium containing Compound (1), in the aforementioned operation, was used as 0.1. Note that hereinafter, an ALDEFLUOR reagent positive fraction (deemed as cancer stem cells) is represented by ALDH (+), whereas an ALDEFLUOR reagent negative fraction (not deemed as cancer stem cells) is represented by ALDH (−), in some cases.
(§2) The same operation as in Experimental Example 12 was repeated except that Compound (5) in Experimental Example 12 was changed to the compounds shown in Table 4 and final concentrations shown in Table 4 were used and viable cell counts were separately analyzed. Note that the growth rate in Examples herein is a numerical value of the number of cells obtained after culture relative to the number of cells (regarded as 0.1) grown in a medium containing 0.1% DMSO.
(§3) The same operation as in Experimental Example 12 was repeated except that Compound (5) in Experimental Example 12 was changed to Imatinib (manufactured by NOVARTIS), which is a general anticancer drug, and comparative compounds shown in Table 4 and final concentrations shown in Table 4 were used and viable cell counts were separately analyzed.
(§4) The growth suppressive effect of cancer stem cells was evaluated based on the following criteria. Note that the growth rate in Examples herein is a numerical value relative to the number of cells (regarded as 0.1) grown in a medium containing 0.1% DMSO. • A: The value of ALDH (+) is less than 0.5 (growth suppressive effect against cancer stem cells is extremely high) • B: The value of ALDH (+) is 0.5 or more and less than 0.95 (growth suppressive effect against cancer stem cells is high) • C: The value of ALDH (+) is 0.95 or more (no growth suppressive effect against cancer stem cells)
(§5) Furthermore, superiority of cancer stem cells was evaluated by comparing cancer stem cells to cancer cells based on the following criteria. ALDH (+) represents cancer stem cells; whereas ALDH (−) represents general cancer cells. • A: The value of ALDH (+)/ALDH (−) is less than 0.8 (selective inhibitory effect against cancer stem cells is extremely high) • B: The value of ALDH (+)/ALDH (−) is 0.8 or more and less than 0.95 (selective inhibitory effect against cancer stem cells is high) • C: The value of ALDH (+)/ALDH (−) is 0.95 or more (no selective inhibitory effect against cancer stem cells)

[3] = system: K562 ALDH (+) fraction (cancer stem cells); test: Cancer stem-cell selective inhibitory action against chronic myelocytic leukemia cells, ALDH (+) fraction, CellTiter-Glo; type: cell-based; settings: Homo sapiens, 24 hours; for activity at 0.12 µg/mL: 0.12 μg/ml; for activity at 0.24 µg/mL: 0.24 μg/ml; for activity at 0.35 µg/mL: 0.35 μg/ml; for activity at 0.47 µg/mL: 0.47 μg/ml; for activity at 0.59 µg/mL: 0.59 μg/ml
Procedure: as §1, §2, §3, §4, §5

[4] = read-out: Growth suppression evaluated
[5] = relative to 0.1% DMSO, read-out: ALDH(+) (growth rate)

Cc1ccc(NC(=O)c2ccc(CN3CCN(C)CC3)cc2)cc1Nc1nccc(-c2cccnc2)n1 [Imatinib, reference compound]
Evaluation (inhibition rate in metastatic foci) [1]: B (Inhibition rate is 50 or more and less than 70)
Inhibition rate [1]: 60
inhibitory effect against general cancer cells, in words [2]: an inhibitory effect against general cancer cells was observed
activity at 0.12 µg/mL ([2]; Homo sapiens, 0.12 μg/ml, 24 hours, relative to 0.1% DMSO, read-out: ALDH(−) (growth rate)): 51%
activity at 0.24 µg/mL ([2]; Homo sapiens, 0.24 μg/ml, 24 hours, relative to 0.1% DMSO, read-out: ALDH(−) (growth rate)): 40%
activity at 0.35 µg/mL ([2]; Homo sapiens, 0.35 μg/ml, 24 hours, relative to 0.1% DMSO, read-out: ALDH(−) (growth rate)): 32%
activity at 0.47 µg/mL ([2]; Homo sapiens, 0.47 μg/ml, 24 hours, relative to 0.1% DMSO, read-out: ALDH(−) (growth rate)): 22%
activity at 0.59 µg/mL ([2]; Homo sapiens, 0.59 μg/ml, 24 hours, relative to 0.1% DMSO, read-out: ALDH(−) (growth rate)): 11%
activity at 0.12 µg/mL [3, 4]: 50 to 95%
activity at 0.12 µg/mL [3, 5]: 74%
activity at 0.24 µg/mL [3, 4]: 50 to 95%
activity at 0.24 µg/mL [3, 5]: 59%
activity at 0.35 µg/mL [3, 4]: < 50%
activity at 0.35 µg/mL [3, 5]: 48%
activity at 0.47 µg/mL [3, 4]: < 50%
activity at 0.47 µg/mL [3, 5]: 36%
activity at 0.59 µg/mL [3, 4]: < 50%
activity at 0.59 µg/mL [3, 5]: 31%

Cc1nc(Nc2ncc(C(=O)Nc3c(C)cccc3Cl)s2)cc(N2CCN(CCO)CC2)n1 [Dasatinib]
Evaluation (inhibition rate in metastatic foci) [1]: C (Inhibition rate is less than 50)
Inhibition rate [1]: 36
